Measurements published in patent publication US5114920A, “BU-3292T antibiotics” (priority 1988, dated 1992).
Converted amounts (≈) assume the structure as drawn. Starred links: 1 amine or outer side, 2 acyl side, 3 side chain; linkers in the order of their positions; H or OH if unused. Positions of bridges follow the written chain, without caps; N, C: chain ends. Non-standard residues stand in square brackets, D forms with d. Residues, ends and D or L forms follow the SMILES beside them. *: point of attachment. X2 = CC1CCC(C(=O)[*:2])N1[*:1]; NMeV = CN[CH](C(=O)O)C(C)C; X1 = Cc1ccc(C(=O)*)c(N)c1O; Sar = CNCC(=O)O

Columns and labels:
[1] = tested on: Aspergillus fumigatus IAM 2530; assay: Antimicrobial activity, serial two-fold agar dilution method; format: cell-based; conditions: Sabouraud dextrose agar
Experimental: (§1) The antimicrobial activity of BU-3292T A and B was determined against aerobic and anaerobic bacteria and fungi by a serial two-fold agar dilution method. BU-3292T A and B are active against aerobic gram-positive bacteria, and weakly active against anaerobic gram-negative bacteria and fungi.

[2] = tested on: Bacillus subtilis PCI-219; assay: as above; format: cell-based; conditions: Nutrient agar
Experimental: as §1

[3] = tested on: Bacteroides fragilis A22693; assay: as above; format: cell-based; conditions: GAM agar
Experimental: as §1

[4] = tested on: Candida albicans IAM 4888; assay: as above; format: cell-based; conditions: Sabouraud dextrose agar
Experimental: as §1

[5] = tested on: Clostridium difficile A21675; assay: as above; format: cell-based; conditions: GAM agar
Experimental: as §1

[6] = tested on: Cryptococcus neoformans IAM 4519; assay: as above; format: cell-based; conditions: Sabouraud dextrose agar
Experimental: as §1

Escherichia coli NIHJ = assay: as above; format: cell-based; conditions: Nutrient agar
Experimental: as §1

[7] = tested on: Fusarium moniliforme A2284; assay: as above; format: cell-based; conditions: Sabouraud dextrose agar
Experimental: as §1

[8] = tested on: Klebsiella pneumoniae D11; assay: as above; format: cell-based; conditions: Nutrient agar
Experimental: as §1

Micrococcus luteus 1001 = assay: as above; format: cell-based; conditions: Nutrient agar
Experimental: as §1

Mucor spinosus IFO 5317 = assay: as above; format: cell-based
Experimental: as §1

[9] = tested on: Propionibacterium acnes A21933; assay: as above; format: cell-based; conditions: GAM agar
Experimental: as §1

[10] = tested on: Propionibacterium anaerobius A21905; assay: as above; format: cell-based; conditions: GAM agar
Experimental: as §1

Proteus mirabilis A9554 = assay: as above; format: cell-based; conditions: Nutrient agar
Experimental: as §1

Proteus vulgalis A9436 = assay: as above; format: cell-based; conditions: Nutrient agar
Experimental: as §1

[11] = tested on: Pseudomonas aeruginosa A9930; assay: as above; format: cell-based; conditions: Nutrient agar
Experimental: as §1

[12] = tested on: Staphylococcus aureus 209P; assay: as above; format: cell-based; conditions: Nutrient agar
Experimental: as §1

[13] = tested on: Staphylococcus aureus smith; assay: as above; format: cell-based; conditions: Nutrient agar
Experimental: as §1

[14] = tested on: Staphylococcus epidermidis D153; assay: as above; format: cell-based; conditions: Nutrient agar
Experimental: as §1

[15] = tested on: Streptococcus faecalis A9612; assay: as above; format: cell-based; conditions: Nutrient agar
Experimental: as §1

[16] = tested on: Streptococcus pyogenes A20201; assay: as above; format: cell-based; conditions: Nutrient agar
Experimental: as §1

[17] = tested on: Trichophyton mentagrophytes D155; assay: as above; format: cell-based; conditions: Sabouraud dextrose agar
Experimental: as §1

[18] = tested on: Clostridium perfringens A9635; format: cell-based; conditions: GAM agar
[19] = tested on: B16-F10 (murine melanoma) cells; assay: In vitro cytotoxicity, neutral red staining; format: cell-based
Experimental: (§2) BU-3292T components A and B were tested for in vitro cytotoxicity against murine and human tumor cells and for in vivo antitumor activity in mice. Actinomycin D was used as a reference compound in both in vitro and in vivo experiments. B16-F10 (murine melanoma) and Moser (human colorectal carcinoma) cells were grown to the logarithmic phase in enriched Eagle minimum essential medium (MEM) supplemented with fetal calf serum (FCS, 10%) and kanamycin (60 mcg/ml), harvested and inoculated into wells of a 96-well microtiter plate with test materials at the concentrations of 3.0×10^4 and 6.0×10^4 cells/ml, respectively. They were incubated at 37° C. in humidified atmosphere of 5% CO2 and 95% air for 72 hours. The cytotoxic activity was determined colorimetrically at 540 nm after staining viable cells with neutral red. […] Inhibitory effects of BU-3292T component A on macromolecule (DNA, RNA and protein) synthesis were determined in vitro. Cultured L1210 murine leukemia cells (5×10^5 cells/ml) were incubated with test materials at 37° C. for 15 minutes and then further incubated for 60 minutes after the addition of labelled precursor, ^3 H-thymidine, ^14 C-uridine or ^3 H-leucine, into the cultured mixtures. After washing with chilled 5% trichloroacetic acid solution, the radioactivity incorporated into the acid-insoluble fraction of the tumor cells was determined in a liquid scintillation counter. […] In vivo antitumor activities of BU-3292T components A and B were tested in tumor-bearing female CDF mice. After the intraperitoneal implantation of diluted ascitic fluid with 1.0 ×10^6 lymphocytic leukemia P388 cells into the mice, test compounds were administered intraperitoneally once a day on days 1, 2 and 3 (QD×3).

[20] = tested on: Moser (human colorectal carcinoma) cells; assay: In vitro cytotoxicity, neutral red staining; format: cell-based; conditions: 72 hours
Experimental: as §2

[21] = tested on: DNA synthesis in L1210 leukemia cells; assay: Inhibition of macromolecule synthesis, 3H-thymidine incorporation; format: cell-based, murine
Experimental: BU-3292T components A and B were tested for in vitro cytotoxicity against murine and human tumor cells and for in vivo antitumor activity in mice. Actinomycin D was used as a reference compound in both in vitro and in vivo experiments. B16-F10 (murine melanoma) and Moser (human colorectal carcinoma) cells were grown to the logarithmic phase in enriched Eagle minimum essential medium (MEM) supplemented with fetal calf serum (FCS, 10%) and kanamycin (60 mcg/ml), harvested and inoculated into wells of a 96-well microtiter plate with test materials at the concentrations of 3.0×10^4 and 6.0×10^4 cells/ml, respectively. They were incubated at 37° C. in humidified atmosphere of 5% CO2 and 95% air for 72 hours. The cytotoxic activity was determined colorimetrically at 540 nm after staining viable cells with neutral red. […] Inhibitory effects of BU-3292T component A on macromolecule (DNA, RNA and protein) synthesis were determined in vitro. […] After washing with chilled 5% trichloroacetic acid solution, the radioactivity incorporated into the acid-insoluble fraction of the tumor cells was determined in a liquid scintillation counter. […]

[22] = tested on: RNA synthesis in L1210 leukemia cells; assay: Inhibition of macromolecule synthesis, 14C-uridine incorporation; format: cell-based, murine
Experimental: as §2

[23] = tested on: Protein synthesis in L1210 leukemia cells; assay: Inhibition of macromolecule synthesis, 3H-leucine incorporation; format: cell-based, murine
Experimental: as §2

[24] = tested on: lymphocytic leukemia P388; assay: Antitumor activity against P388 leukemia (ip); format: in vivo, mice; conditions: for MST (Median survival time) / T/C: QD × 3, ip
Experimental: as §2

[25] = Body weight change in P388-bearing mice; conditions: QD × 3, ip
Experimental: as §2

Solubility = format: physicochemical
Description: BU-3292T A is isolated as a white amorphous powder, while BU-3292T B is an orange-red powder. […] The compounds give positive responses to iodine and Rydone-Smith reagents, but negative responses to Sakaguchi, ferric chloride, ninhydrin and anthrone reagents. […] The IR spectra of BU-3292T A and B are illustrated in FIGS. 1 and 2, respectively.

[26] = tested on: aerobic gram-positive bacteria; assay: Antimicrobial activity, agar dilution, summary in words; format: cell-based; conditions: summary of Table 6
Experimental: as §1

[27] = tested on: anaerobic gram-negative bacteria and fungi; assay: as above; format: cell-based; conditions: summary of Table 6
Experimental: as §1

gram-negative bacteria = assay: as above; format: cell-based; conditions: summary of Table 6
Experimental: as §1

## Cc1ccc(C(=O)NC2C(=O)NC(C(C)C)C(=O)N3C(C)CCC3C(=O)N(C)CC(=O)N(C)C(C(C)C)C(=O)OC2C)c(N)c1O (stereo not shown) [BU-3292T A] (X1-TV[X2][Sar][NMeV]; ester 1-C; configuration not given here)
[1]
  MIC: > 100 µg/mL
[2]
  MIC: 0.4 µg/mL (≈ 0.62 µM)
[3]
  MIC: > 100 µg/mL
[4]
  MIC: > 100 µg/mL
[5]
  MIC: > 100 µg/mL
[6]
  MIC: 100 µg/mL (≈ 155 µM)
Escherichia coli NIHJ
  MIC: > 100 µg/mL
[7]
  MIC: > 100 µg/mL
[8]
  MIC: > 100 µg/mL
Micrococcus luteus 1001
  MIC: 0.4 µg/mL (≈ 0.62 µM)
Mucor spinosus IFO 5317; Mucor spinosus IFO 5317, Sabouraud dextrose agar
  MIC: 12.5 µg/mL (≈ 19.4 µM)
Mucor spinosus IFO 5317; in vitro against Mucor spinosus IF05317
  MIC: 12.5 µg/mL (≈ 19.4 µM)
[9]
  MIC: 100 µg/mL (≈ 155 µM)
[10]
  MIC: 100 µg/mL (≈ 155 µM)
Proteus mirabilis A9554
  MIC: > 100 µg/mL
Proteus vulgalis A9436
  MIC: > 100 µg/mL
[11]
  MIC: > 100 µg/mL
[12]
  MIC: 1.6 µg/mL (≈ 2.48 µM)
[13]
  MIC: 1.6 µg/mL (≈ 2.48 µM)
[14]
  MIC: 1.6 µg/mL (≈ 2.48 µM)
[15]
  MIC: 0.8 µg/mL (≈ 1.24 µM)
[16]
  MIC: 1.6 µg/mL (≈ 2.48 µM)
[17]
  MIC: > 100 µg/mL
[18]
  MIC: 100 µg/mL (≈ 155 µM)
[19]; B16-F10, 72 hours
  IC50: 0.007 µg/mL (≈ 0.0109 µM)
[19]; cytotoxic activity, B16-F10 versus Moser
  times stronger against B16-F10 cells than against Moser cells: approximately 10 times
[20]
  IC50: 0.09 µg/mL (≈ 0.14 µM)
[21]
  IC50 DNA: 80 µg/mL (≈ 124 µM)
[22]; L1210 cells, RNA versus DNA synthesis
  inhibited RNA synthesis times more than DNA synthesis: approximately 300 times
[22]; L1210 leukemia cells, 14C-uridine
  IC50 RNA: 0.23 µg/mL (≈ 0.357 µM)
[23]; L1210 cells, at 100 mcg/ml, the highest concentration tested
  inhibitory effect on protein synthesis: no inhibitory effect
[23]; L1210 leukemia cells, 3H-leucine
  IC50 Protein: > 100 µg/mL
[24]; 0.03 mg/kg/day
  MST (Median survival time): 11.0 days
  T/C: 110%
[24]; 0.1 mg/kg/day
  MST (Median survival time): 11.0 days
  T/C: 110%
[24]; 0.3 mg/kg/day
  MST (Median survival time): 12.0 days
  T/C: 120%
[24]; 1 mg/kg/day
  MST (Median survival time): 13.0 days
  T/C: 130%
[24]; 3 mg/kg/day
  MST (Median survival time): 14.0 days
  T/C: 140%
[24]; 10 mg/kg/day
  MST (Median survival time): 16.0 days
  T/C: 160%
[24]; 30 mg/kg/day
  MST (Median survival time): Tox
  T/C: Tox
[24]; anti-P388 leukemic activity, QD×3, ip
  maximum T/C value: 160%
[25]; 0.03 mg/kg/day
  Body weight change on day 4: +1.3 g
[25]; 0.1 mg/kg/day
  Body weight change on day 4: +1.3 g
[25]; 0.3 mg/kg/day
  Body weight change on day 4: +1.3 g
[25]; 1 mg/kg/day
  Body weight change on day 4: +0.5 g
[25]; 3 mg/kg/day
  Body weight change on day 4: +0.3 g
[25]; 10 mg/kg/day
  Body weight change on day 4: -3.0 g
Solubility; dimethyl sulfoxide, dimethylformamide, methanol, ethyl acetate, chloroform
  solubility in dimethyl sulfoxide, dimethylformamide, methanol, ethyl acetate and chloroform: readily soluble
Solubility; water and other organic solvents
  solubility in water and other organic solvents: insoluble
[26]
  activity against aerobic gram-positive bacteria: active
[27]
  activity against anaerobic gram-negative bacteria and fungi: weakly active
gram-negative bacteria
  activity against gram-negative bacteria: inactive
